From PMC11876671, “Investigating blood–brain barrier penetration and neurotoxicity of natural products for central nervous system drug development” (Scientific Reports, 2025)
Counter-ions that a name gives are not always drawn. *1 amine or outer side, *2 acyl side, *3 side chain or, on linkers, in order; H or OH if unused. Where a SMILES comes first, the peptide text is derived from it. Bridges are numbered along the chain shown (N, C = ends). [ ]: non-standard residue; d: D form. The star is where a group is joined. X1 = NC1=N[C@@H]([C@H](N[*:1])C(=O)[*:2])C[C@H](O)N1; ΔAla(Z-3-ureido) = NC(=O)N/C=C(\N)C(=O)O; β3hOrn = NCCC[C@H](N)CC(=O)*; Dap = NC[C@H](N)C(=O)O

Assay: in vitro
Conditions: PAMPA, PAMPA-BBB Pe

Compound | Papp [×10⁻⁶ cm/s]
COc1cc2c(cc1OC)[C@@H]1Cc3ccc(OC)c(OC)c3CN1CC2 [TETRAHYDROPALMATINE] | 156
COC(=O)c1c(C)cc(O)c(C)c1O [VERAMOSS] | 225
CC[C@]1(O)C[C@H]2CN(CCc3c([nH]c4ccccc34)[C@@](C(=O)OC)(c3cc4c(cc3OC)N(C)[C@H]3[C@@](O)(C(=O)OC)[C@H](OC(C)=O)[C@]5(CC)C=CCN6CC[C@]43[C@@H]65)C2)C1 [V[…]] | 21
COC(=O)[C@@H]1[C@H]2C[C@H]3c4[nH]c5ccccc5c4CCN3C[C@@H]2CC[C@@H]1O [YOHIMBINE] | 42
O=C1C[C@@H]2OCC=C3CN4CC[C@]56c7ccccc7N1[C@H]5[C@H]2[C@H]3C[C@H]46 [[…]] | 13

Same assay, conditions: PAMPA, PAMPA-BBB Pe(10^-6 cm/sec)

Compound | Papp [×10⁻⁶ cm/s]
Cn1cnc2c1c(=O)[nH]c(=O)n2C [THEOBROMINE] | < 1
Cc1ncc(C[n+]2csc(CCO)c2C)c(N)n1 [THIAMINE MONONITRATE] | < 1
C[n+]1cccc(C(=O)[O-])c1 [TRIGONELLINE] | < 1
O=c1ccc2ccc(O)cc2o1 [UMBELLIFERONE] | < 1
CN[C@H](CC(C)C)C(=O)N[C@H]1C(=O)N[C@@H](CC(N)=O)C(=O)N[C@H]2C(=O)N[C@H]3C(=O)N[C@H](C(=O)N[C@H](C(=O)O)c4cc(O)cc(O)c4-c4cc3ccc4O)[C@H](O)c3ccc(c(Cl)c3)Oc3cc2cc(c3O[C@@H]2O[C@H](CO)[C@@H](O)[C@H](O)[C@H]2O[C@H]2C[C@](C)(N)[C@H](O)[C@H](C)O2)Oc2ccc(cc2Cl)[C@H]1O [VANCOMYCIN HYDROCHLORIDE] | < 1
CC[C@]1(O)C[C@@H]2CN(CCc3c([nH]c4ccccc34)[C@@](C(=O)OC)(c3cc4c(cc3OC)N(C)[C@H]3[C@@](O)(C(=O)OC)[C@H](OC(C)=O)[C@]5(CC)C=CCN6CC[C@]43[C@@H]65)C2)C1 [VINBLASTINE] | 5.7
CN(C)[C@@H]1C(O)=C(C(N)=O)C(=O)[C@@]2(O)C(O)=C3C(=O)c4c(O)ccc(Cl)c4[C@@](C)(O)[C@H]3C[C@@H]12 [[…]] | < 1

Same assay, conditions: PAMPA, PAMPA-BBB Pe(10^-6 cm/sec), Table S3: compounds exhibiting low PAMPA-BBB permeability

Compound | Papp [×10⁻⁶ cm/s]
O=c1c(O)c(-c2ccc(O[C@@H]3O[C@H](CO)[C@@H](O)[C@H](O)[C@H]3O)c(O)c2)oc2cc(O)cc(O)c12 [SPIRAEOSIDE] | < 1
CO[C@@H]1[C@@H](O[C@@H]2O[C@H](C)[C@@H](O[C@H]3C[C@@](C)(O)[C@@H](O)[C@H](C)O3)[C@H](N(C)C)[C@H]2O)[C@@H](CC=O)C[C@@H](C)[C@@H](O[C@H]2CC[C@H](N(C)C)[C@@H](C)O2)/C=C/C=C/C[C@@H](C)OC(=O)C[C@H]1OC(C)=O [SPIRAMYCIN II] | 7.6
COc1cc(C)c2c(c1C=O)Oc1c(c(C)c(O)c3c1C(O)OC3=O)OC2=O (centres unmarked) [STICTIC ACID] | < 1
Cc1coc2c1C(=O)C(=O)c1c-2ccc2c(C)cccc12 [TANSHINONE I] | 6.8
CC1=C(O)C(=O)[C@@H]2O[C@@H]2C1=O [TERREIC ACID] | 6.8
O=C(O[C@@H]1Cc2c(O)cc(O)cc2O[C@@H]1c1cc(O)c(=O)c2c(O)c(O)cc([C@H]3Oc4cc(O)cc(O)c4C[C@H]3O)c2c1)c1cc(O)c(O)c(O)c1 [THEAFLAVIN MONOGALLATE] | < 1
O=c1c(O)cc([C@H]2Oc3cc(O)cc(O)c3C[C@H]2O)cc2c([C@H]3Oc4cc(O)cc(O)c4C[C@@H]3O)cc(O)c(O)c12 [THEAFLAVINE] | < 1
CC(=O)Nc1c2sscc-2n(C)c1=O [THIOLUTIN] | < 1
C=C(NC(=O)C(=C)NC(=O)c1csc(C2=N[C@@H]3c4csc(n4)[C@H]4NC(=O)c5csc(n5)[C@H]([C@](C)(O)[C@@H](C)O)NC(=O)[C@H]5CSC(=N5)/C(=C/C)NC(=O)[C@H]([C@@H](C)O)NC(=O)c5csc(n5)[C@]3(CC2)NC(=O)[C@H](C)NC(=O)C(=C)NC(=O)[C@H](C)NC(=O)[C@H]([C@@H](C)CC)N[C@@H]2C=Cc3c([C@H](C)O)cc(nc3[C@H]2O)C(=O)O[C@@H]4C)n1)C(N)=O [THIOSTREPTON] | < 1
O=C(/C=C/c1ccc(O)cc1)OC[C@H]1O[C@@H](Oc2c(-c3ccc(O)cc3)oc3cc(O)cc(O)c3c2=O)[C@H](O)[C@@H](O)[C@@H]1O [TILIROSIDE] | < 1
CCC/C=C/C/C=C/C=C/C=N/NN=O [TRIACSIN C] | 8.1
NCCc1c[nH]c2ccccc12 [TRYPTAMINE HYDROCHLORIDE] | < 1
NCCCS(=O)(=O)O [TR[…]] | 1.7
Nc1ncnc2c1ccn2[C@@H]1O[C@H](CO)[C@@H](O)[C@H]1O [TUBERCIDIN] | 2.1
O=c1ccn([C@@H]2O[C@H](COP(=O)(O)O)[C@@H](O)[C@H]2O)c(=O)[nH]1 [URIDINE PHOSPHATE] | < 1
O=C(O)/C=C/c1c[nH]cn1 [UROCANIC ACID] | < 1
O=c1ccn([C@@H]2O[C@H](COP(=O)(O)OP(=O)(O)O)[C@@H](O)[C@H]2O)c(=O)[nH]1 [Uridine diphosphate disodium] | < 1
COc1cc(C(=O)O)ccc1O [VANILLIC ACID] | < 1

Compound | Papp [×10⁻⁶ cm/s]
COC(=O)C1=CO[C@@H](O[C@@H]2O[C@H](CO)[C@@H](O)[C@H](O)[C@H]2O)[C@H]2[C@@H]1C(=O)C[C@@H]2C [VERBENALIN] | < 1
NCCC[C@H](N)CC(=O)N[C@H]1CNC(=O)[C@H]([C@H]2C[C@H](O)NC(N)=N2)NC(=O)/C(=C/NC(N)=O)NC(=O)[C@H](CO)NC(=O)[C@H](CO)NC1=O [VIOMYCIN SULFATE] (β3hOrn-[Dap]SS[ΔAla(Z-3-ureido)][X1]; lactam 1-C) | < 1
O=c1cc(-c2ccc(O)cc2)oc2c([C@@H]3O[C@H](CO)[C@@H](O)[C@H](O)[C@H]3O)c(O)cc(O)c12 [VITEXIN] | < 1
N[C@@H](Cn1ccc(=O)[nH]c1=O)C(=O)O [WILLARDIINE] | < 1
CC1=C[C@H](O)CC(C)(C)[C@H]1/C=C/C(C)=C/C=C/C(C)=C/C=C/C=C(C)/C=C/C=C(C)/C=C/C1=C(C)C[C@@H](O)CC1(C)C [XANTHOPHYLL] | 5
O=c1[nH]c(=O)c2ncn([C@@H]3O[C@H](CO)[C@@H](O)[C@H]3O)c2[nH]1 [XANTHOSINE] | < 1
CC1=C(/C=C/C(C)=C/C=C/C(C)=C/C=C/C=C(C)/C=C/C=C(C)/C=C/C2=C(C)C[C@@H](O)CC2(C)C)C(C)(C)C[C@H](O)C1 [ZEAXANTHIN] | 2.1
COc1cc(C(O)C(=O)O)ccc1O (centres unmarked) [[…] ACID] | 5.6
O=C1O/C(=C\c2ccc(O)cc2)C(O)=C1c1ccc(O)cc1 [[…] B1] | < 1
O=C(Nc1ccccc1C(=O)O)c1ccccc1 [[…] B] | 1.9
CCCCCCCCCCCCCCCCCCCC(=O)O [[…]] | < 1
C[C@@H]1Cc2c(Cl)cc(C(=O)N[C@@H](Cc3ccccc3)C(=O)O)c(O)c2C(=O)O1 [[…]] | 1.6
Cc1cc(O)cc(O)c1C(=O)O [[…]] | < 1
Cc1ncc(CO)c(CO)c1O [[…]] | < 1
O=C1/C(=C\c2ccc(O)c(O)c2)Oc2c1ccc(O[C@@H]1O[C@H](CO)[C@@H](O)[C@H](O)[C@H]1O)c2O [[…]] | 1
Oc1cc(O)cc(/C=C/c2ccc(O)c(O)c2)c1 [[…]] | 1
[O-][n+]1ccccc1SSc1cccc[n+]1[O-] [[…]] | < 1
COC1=C[C@@H]2C3=C([C@@H]2C1=O)[C@@H](NC(C)=O)CCc1cc(OC)c(OC)c(OC)c13 [β-Lumicolchicine] | 3.6

Same assay, conditions: PAMPA, PAMPA-BBB Pe, Table S2: compounds exhibiting moderate to high PAMPA-BBB permeability

Compound | Papp [×10⁻⁶ cm/s]
COc1cc2c(c(OC)c1OC)-c1c(cc(OC)c(OC)c1OC)C[C@H](C)[C@H](C)C2 [S[…]] | 171
COC(=O)C1=CO[C@@H](C)[C@@H]2CN3CCc4c([nH]c5ccccc45)[C@@H]3C[C@H]12 [TETRAHYDROALSTONINE] | > 530
Cc1ccc(C(C)C)c(O)c1 [THYMOL] | 168
O=C(/C=C/c1ccc(O)cc1)c1ccc(O)cc1O [TRIHYDROXYCHALCONE] | 169
CC1=CCCC(C)(C)C12CCC(C)O2 (centres unmarked) [T[…]] | 141
COc1ccc(C(=O)O[C@H]2CC[C@@]3(C)[C@@H]4CC[C@H]5[C@]6(O)C[C@H](O)[C@@]7(O)[C@@H](CN8C[C@@H](C)CC[C@H]8[C@@]7(C)O)[C@]6(O)C[C@@]53O[C@]24O)cc1OC [VERATRIDINE] | 17
CCC12C=CCN3CC[C@@]4(c5ccc(OC)cc5N(C)[C@H]4[C@@](O)(C(=O)OC)[C@@H]1OC(C)=O)[C@@H]32 (some centres unmarked) [VINDOLINE] | 92
O=c1c2ccccc2oc2ccccc12 [XANTHONE] | 173
COc1cc(O)c(C(C)=O)c(OC)c1 [XANTHOXYLINE] | 149
CC1=C[C@H](O)CC(C)(C)[C@H]1/C=C/C(C)=C/C=C/C(C)=C/C=C/C=C(C)/C=C/C=C(C)/C=C/C1=C(C)C[C@@H](O)CC1(C)C [XANTOFYL] | 28
COc1ccc(/C=C/c2cc(OC)cc(=O)o2)cc1 [YANGONIN] | 156
COc1cc(CCC(C)=O)ccc1O [ZINGERONE] | 23
CC(C)[C@H]1C(=O)N[C@H](CO)Cc2c[nH]c3cccc(c23)N1C [[…]] | 47
CN1CC[C@]23c4ccccc4N[C@H]1[C@]21CCN(C)[C@H]3Nc2ccccc21 [[…]] | 23
COC(=O)/C=C\C(=O)O [[…]] | 48
C[C@H]1COC2=C1C(=O)C(=O)c1c2ccc2c1CCCC2(C)C [[…]] | 12
O=C1c2ccccc2-n2c1nc1ccccc1c2=O [[…]] | 141

Assay: not given
Conditions: not given

Compound | PAMPA-BBB Pe(10^-6 cm/sec)
COc1cc2c(c3oc(=O)c4c(c13)CCC4=O)[C@@H]1C=CO[C@@H]1O2 [AFLATOXIN B1] | 7.2 10^-6 cm/sec
COc1cc2c(c3oc(=O)c4c(c13)CCOC4=O)C1C=COC1O2 (centres unmarked) [AFLATOXIN G1] | <1 10^-6 cm/sec
COc1cc2c(c3oc(=O)c4c(c13)CCC4=O)[C@@H]1CCO[C@@H]1O2 [DIHYDROAFLATOXINE B1] | 2.8 10^-6 cm/sec

Same assay, conditions: PAMPA

Compound | PAMPA-BBB Pe(10^-6 cm/sec) | PAMPA-BBB Pe
O=C(N[C@H](CO)[C@H](O)c1ccc([N+](=O)[O-])cc1)C(Cl)Cl [CHLORAMPHENICOL] | 3.5 10^-6 cm/sec | –
Cc1nccc2c1[nH]c1ccccc12 [HARMAN] | – | 60 10^-6 cm/sec

Same assay, conditions: Table S2: compounds exhibiting moderate to high PAMPA-BBB permeability

Compound | PAMPA-BBB Pe
COc1cc(OC)c2c(c1Cl)O[C@]1(C2=O)[C@H](C)CC(=O)C[C@@H]1OC [NCGC00016380-01] | 31 10^-6 cm/sec
